Experimental data from US6737383B1, “Herbicidal oxadiazolidines” (priority 1999, dated 2004).

Columns and labels:
crabgrass = assay: Test B pre/postemergence crabgrass; format: in vivo, Digitaria sanguinalis; conditions: Preemergence
Description: (§1) Seeds of bedstraw (Galium aparine), blackgrass (Alopecurus myosuroides), surinam grass (Brachiaria decumbens), cocklebur (Xanthium strumarium), corn (Zea mays), crabgrass (Digitaria sanguinalis), giant foxtail (Setaria faberii), morningglory (Ipomoea hederacea), pigweed (Amaranthus retroflexus), rape (Brassica napus), soybean (Glycine max), sugar beet (Beta vulgaris), velvetleaf (Abutilon theophrasti), wheat (Triticum aestivum), wild oat (Avena fatua) and purple nutsedge (Cyperus rotundus) tubers were planted and treated preemnergence with test chemicals formulated in a non-phytotoxic solvent mixture which included a surfactant.
(§2) At the same time, these crop and weed species were also treated with postemergence applications of test chemicals formulated in the same manner. Plants ranged in height from 2 to 18 cm (1- to 4-leaf stage) for postemergence treatments. Plant species in the flood test consisted of rice (Oryza sativa), smallflower flatsedge (Cyperus difformis), duck salad (Heteranthera limosa) and bamyardgrass (Echinochloa crus-galli) grown to the 2-leaf stage for testing. Treated plants and controls were maintained in a greenhouse for twelve to sixteen days, after which all species were compared to controls and visually evaluated. Plant response ratings, summarized in Table B, are based on a scale of 0 to 10 where 0 is no effect and 10 is complete control. A dash (−) response means no test result.

wheat = assay: Test B pre/postemergence wheat; format: in vivo, Triticum aestivum; conditions: Preemergence, Rate 62 g/ha; scale of 0 to 10 where 0 is no effect and 10 is complete control
Description: as §1, §2

corn = assay: Test B pre/postemergence corn; format: in vivo, Zea mays; conditions: Preemergence
Description: as §1, §2

giant foxtail = assay: Test B pre/postemergence giant foxtail; format: in vivo, Setaria faberii; conditions: Preemergence, Rate 62 g/ha; scale of 0 to 10 where 0 is no effect and 10 is complete control
Description: as §1, §2

pigweed = assay: Test B pre/postemergence pigweed; format: in vivo, Amaranthus retroflexus; conditions: Preemergence, Rate 62 g/ha; scale of 0 to 10 where 0 is no effect and 10 is complete control
Description: as §1, §2

blackgrass = assay: Test B pre/postemergence blackgrass; format: in vivo, Alopecurus myosuroides; conditions: Preemergence
Description: as §1, §2

surinam grass = assay: Test B pre/postemergence surinam grass; format: in vivo, Brachiaria decumbens; conditions: Preemergence
Description: as §1, §2

bedstraw = assay: Test B pre/postemergence bedstraw; format: in vivo, Galium aparine; conditions: Preemergence
Description: as §1, §2

cocklebur = assay: Test B pre/postemergence cocklebur; format: in vivo, Xanthium strumarium; conditions: Preemergence
Description: as §1, §2

sugar beet = assay: Test B pre/postemergence sugar beet; format: in vivo, Beta vulgaris; conditions: Preemergence, Rate 62 g/ha; scale of 0 to 10 where 0 is no effect and 10 is complete control
Description: as §1, §2

wild oat = assay: Test B pre/postemergence wild oat; format: in vivo, Avena fatua; conditions: Preemergence, Rate 62 g/ha; scale of 0 to 10 where 0 is no effect and 10 is complete control
Description: as §1, §2

rape = assay: Test B pre/postemergence rape; format: in vivo, Brassica napus; conditions: Preemergence, Rate 62 g/ha; scale of 0 to 10 where 0 is no effect and 10 is complete control
Description: as §1, §2

morningglory = assay: Test B pre/postemergence morningglory; format: in vivo, Ipomoea hederacea; conditions: Preemergence, Rate 62 g/ha; scale of 0 to 10 where 0 is no effect and 10 is complete control
Description: as §1, §2

soybean = assay: Test B pre/postemergence soybean; format: in vivo, Glycine max; conditions: Preemergence, Rate 62 g/ha; scale of 0 to 10 where 0 is no effect and 10 is complete control
Description: as §1, §2

velvetleaf = assay: Test B pre/postemergence velvetleaf; format: in vivo, Abutilon theophrasti; conditions: Preemergence, Rate 62 g/ha; scale of 0 to 10 where 0 is no effect and 10 is complete control
Description: as §1, §2

[1] = Rate 62 g/ha, scale of 0 to 10 where 0 is no effect and 10 is complete control
[2] = Rate 250 g/ha, scale 0 to 10 (0 no effect, 10 complete control)
[3] = Rate 500 g/ha, scale of 0 to 10 where 0 is no effect and 10 is complete control

Structure (SMILES): CC(C)N(C(=O)n1oc(=O)n(C(C)C2CC2)c1=O)c1ccc(Cl)cc1 (stereo not shown) [Compound 700]
- Crabgrass plant response rating (crabgrass; [1]): 10
- Plant response rating, Crabgrass (crabgrass; [2]): 10
- Wheat plant response rating (wheat): 0
- Corn plant response rating (corn; [1]): 0
- Plant response rating, Corn (corn; [2]): 3
- Giant foxtail plant response rating (giant foxtail): 10
- Redroot pigweed plant response rating (pigweed): 0
- Blackgrass plant response rating (blackgrass; [1]): 4
- Plant response rating, Blackgrass (blackgrass; [2]): 8
- Plant response rating, Blackgrass (blackgrass; [3]): 10
- B. signalgrass plant response rating (surinam grass; [1]): 4
- Plant response rating, B. signalgrass (surinam grass; [2]): 8
- Plant response rating, B. signalgrass (surinam grass; [3]): 10
- Bedstraw plant response rating (bedstraw; [1]): 0
- Plant response rating, Bedstraw (bedstraw; [2]): 0
- Plant response rating, Bedstraw (bedstraw; [3]): 8
- Cocklebur plant response rating (cocklebur; [1]): 0
- Plant response rating, Cocklebur (cocklebur; [2]): 0
- Plant response rating, Cocklebur (cocklebur; [3]): 0
- Sugarbeets plant response rating (sugar beet): 0
- Wild oats plant response rating (wild oat): 4
- Rape plant response rating (rape): 0
- Morningglory plant response rating (morningglory): 0
- Soybean plant response rating (soybean): 0
- Velvetleaf plant response rating (velvetleaf): 0
